Our source for the melting point values is patent publication US7507743B2, “Substituted 8′-pyridinyl-dihydrospiro-[cycloalkyl]-pyrimido[1,2-a] pyrimidin-6-one and 8′-pyrimidinyl-dihydrospiro-[cycloalkyl]-pyrimido[1,2-a] pyrimidin-6-one derivatives” (Sanofi-Aventis, priority 2003, dated 2009).

Where a name gives a salt, the structure may show the parent alone.

`O=c1cc(-c2ccncn2)nc2n1CCC1(CCCC1)N2C[C@@H](O)c1ccccc1` [compound 4, 1′-[(2S)-2-Hydroxy-2-phenylethyl]-8′-pyrimidin-4-yl-3′,4′-dihydrospiro-[cyclopentane-1,2′-pyrimido[1,2-a]pyrimidin]-6′(1′H)-one] yielded a melting point of 157 to 158 °C.

With `O=c1cc(-c2ccncc2)nc2n1CCC1(CC1)N2CCc1ccccc1` (as salt: hydrochloride) [compound 22, 1′-(phenylethyl)-8′-pyridin-4-yl-3′,4′-dihydrospiro-[cyclopropane-1,2′-pyrimido[1,2-a]pyrimidin]-6′(1′H)-one], the melting point was 224 to 225 °C.

Regarding `O=c1cc(-c2ccncc2)nc2n1CCC1(CCCC1)N2Cc1ccccc1` (as salt: hydrochloride) [compound 19, 1′-(phenylmethyl)-8′-pyridin-4-yl-3′,4′-dihydrospiro-[cyclopentane-1,2′-pyrimido[1,2-a]pyrimidin]-6′(1′H)-one], the melting point lay within 227 to 228 °C.

As to `O=c1cc(-c2ccncn2)nc2n1CCC1(CCCC1)N2CCc1ccccc1` [compound 24, 1′-(phenylethyl)-8′-pyrimidin-4-yl-3′,4′-dihydrospiro-[cyclopentane-1,2′-pyrimido[1,2-a]pyrimidin]-6′(1′H)-one], the melting point fell in the range of 190 to 191 °C.

Compound `O=C(CN1c2nc(-c3ccncn3)cc(=O)n2CCC12CCC2)c1ccccc1` [compound No. 10, 1′-(2-Oxo-2-phenylethyl)-8′-pyrimidin-4-yl-3′,4′-dihydrospiro[cyclobutane-1,2′-pyrimido[1,2-a]pyrimidine]-6′(1′H)-one] returned a melting point of 207 to 208 °C.

For the compound `O=C(CN1c2nc(-c3ccncc3)cc(=O)n2CCC12CCCC2)c1ccccc1` (as salt: hydrochloride) [compound 7, 1′-(2-Oxo-2-phenylethyl)-8′-pyridin-4-yl-3′,4′-dihydrospiro[cyclopentane-1,2′-pyrimido[1,2-a]pyrimidin]-6′(1′H)-one], the melting point was 161 to 162 °C.

Compound `O=c1cc(-c2ccncc2)nc2n1CCC1(CCC1)N2Cc1ccccc1` (as salt: hydrochloride) [compound 18, 1′-(phenylmethyl)-8′-pyridin-4-yl-3′,4′-dihydrospiro-[cyclobutane-1,2′-pyrimido[1,2-a]pyrimidin]-6′(1′H)-one] gave a melting point of 213 to 215 °C.

For `O=c1cc(-c2ccncc2)nc2n1CCC1(CCC1)N2C[C@@H](O)c1ccccc1` (as salt: hydrochloride) [compound 8, 1′-[(2S)-2-Hydroxy-2-phenylethyl]-8′-pyridin-4-yl-3′,4′-dihydrospiro-[cyclobutane-1,2′-pyrimido[1,2-a]pyrimidin]-6′(1′H)-one], the melting point is 214 to 216 °C.

Turning to `O=c1cc(-c2ccncc2)nc2n1CCC1(CCC1)N2C[C@H](O)c1ccccc1` (as salt: hydrochloride) [compound 13, 1′-[(2R)-2-Hydroxy-2-phenylethyl]-8′-pyridin-4-yl-3′,4′-dihydrospiro-[cyclobutane-1,2′-pyrimido[1,2-a]pyrimidin]-6′(1′H)-one], the melting point lay within 218 to 220 °C.

For `O=c1cc(-c2ccncc2)nc2n1CCC1(CCCC1)N2C[C@@H](O)c1ccccc1` (as salt: hydrochloride) [compound 3, 1′-[(2S)-2-Hydroxy-2-phenylethyl]-8′-pyridin-4-yl-3′,4′-dihydrospiro-[cyclopentane-1,2′-pyrimido[1,2-a]pyrimidin]-6′(1′H)-one], the melting point was 221 to 223 °C.

For the compound `O=c1cc(-c2ccncn2)nc2n1CCC1(CCCC1)N2Cc1ccccc1` [compound 16, 1′-(phenylmethyl)-8′-pyrimidin-4-yl-3′,4′-dihydrospiro-[cyclopentane-1,2′-pyrimido[1,2-a]pyrimidin]-6′(1′H)-one], the melting point lay in the range of 191 to 193 °C.

For the compound `O=c1cc(-c2ccncn2)nc2n1CCC1(CCCC1)N2C[C@H](O)c1ccccc1` [compound 5, 1′-[(2R)-2-Hydroxy-2-phenylethyl]-8′-pyrimidin-4-yl-3′,4′-dihydrospiro-[cyclopentane-1,2′-pyrimido[1,2-a]pyrimidin]-6′(1′H)-one], the melting point was in the range of 155 to 156 °C.

As to `O=C(CN1c2nc(-c3ccncc3)cc(=O)n2CCC12CC2)c1ccccc1` (as salt: hydrochloride) [compound 2, 1′-(2-Oxo-2-phenylethyl)-8′-pyridin-4-yl-3′,4′-dihydrospiro[cyclopropane-1,2′-pyrimido[1,2-a]pyrimidin]-6′(1′H)-one], the melting point was in the range of 232 to 234 °C.

`O=c1cc(-c2ccncc2)nc2n1CCC1(CCC1)N2CCc1ccccc1` (as salt: hydrochloride) [compound 21, 1′-(phenylethyl)-8′-pyridin-4-yl-3′,4′-dihydrospiro-[cyclobutane-1,2′-pyrimido[1,2-a]pyrimidin]-6′(1′H)-one] came in with a melting point of 210 to 211 °C.

For `O=C(CN1c2nc(-c3ccncn3)cc(=O)n2CCC12CCCC2)c1ccccc1` [compound 6, 1′-[2-Oxo-2-phenylethyl]-8′-pyrimidin-4-yl-3′,4′-dihydrospiro-[cyclopentane-1,2′-pyrimido[1,2-a]pyrimidin]-6′(1′H)-one], the melting point was 194 to 196 °C.

Regarding `O=c1cc(-c2ccncn2)nc2n1CCC1(CCC1)N2C[C@@H](O)c1ccccc1` [compound 11, 1′-[(2S)-2-Hydroxy-2-phenylethyl]-8′-pyrimidin-4-yl-3′,4′-dihydrospiro-[cyclobutane-1,2′-pyrimido[1,2-a]pyrimidin]-6′(1′H)-one], the melting point lay in the range of 186 to 187 °C.

`O=c1cc(-c2ccncc2)nc2n1CCC1(CC1)N2C[C@@H](O)c1ccccc1` (as salt: hydrochloride) [compound No. 1, 1′-[(2S)-2-Hydroxy-2-phenylethyl]-8′-pyridin-4-yl-3′,4′-dihydrospiro[cyclopropane-1,2′-pyrimido[1,2-a]pyrimidin]-6′(1′H)-one]: the melting point fell in the range of 219 to 221 °C.

In the case of `O=c1cc(-c2ccncc2)nc2n1CCC1(CC1)N2Cc1ccccc1` (as salt: hydrochloride) [compound 17, 1′-(phenylmethyl)-8′-pyridin-4-yl-3′,4′-dihydrospiro-[cyclopropane-1,2′-pyrimido[1,2-a]pyrimidin]-6′(1′H)-one], the melting point was in the range of 233 to 235 °C.

Compound `O=c1cc(-c2ccncc2)nc2n1CCC1(CCCC1)N2CCc1ccccc1` (as salt: hydrochloride) [compound 20, 1′-(phenylethyl)-8′-pyridin-4-yl-3′,4′-dihydrospiro-[cyclopentane-1,2′-pyrimido[1,2-a]pyrimidin]-6′(1′H)-one] came in with a melting point of 208 to 210 °C.

`O=c1cc(-c2ccncn2)nc2n1CCC1(CCC1)N2C[C@H](O)c1ccccc1` [compound 12, 1′-[(2R)-2-Hydroxy-2-phenylethyl]-8′-pyrimidin-4-yl-3′,4′-dihydrospiro-[cyclobutane-1,2′-pyrimido[1,2-a]pyrimidin]-6′(1′H)-one] yielded a melting point of 182 to 184 °C.

For `O=c1cc(-c2ccncn2)nc2n1CCC1(CCC1)N2Cc1ccccc1` [compound 14, 1′-(phenylmethyl)-8′-pyrimidin-4-yl-3′,4′-dihydrospiro-[cyclobutane-1,2′-pyrimido[1,2-a]pyrimidin]-6′(1′H)-one], the melting point was 149 to 150 °C.

`O=C(CN1c2nc(-c3ccncc3)cc(=O)n2CCC12CCC2)c1ccccc1` (as salt: hydrochloride) [compound 9, 1′-(2-Oxo-2-phenylethyl)-8′-pyridin-4-yl-3′,4′-dihydrospiro[cyclobutane-1,2′-pyrimido[1,2-a]pyrimidin]-6′(1′H)-one] yielded a melting point of 242 to 244 °C.

In the case of `O=c1cc(-c2ccncn2)nc2n1CCC1(CCC1)N2CCc1ccccc1` [compound 23, 1′-(phenylethyl)-8′-pyrimidin-4-yl-3′,4′-dihydrospiro-[cyclobutane-1,2′-pyrimido[1,2-a]pyrimidin]-6′(1′H)-one], the melting point lay in the range of 116 to 167 °C.

In turn, `O=c1cc(-c2ccncc2)nc2n1CCC1(CCCC1)N2C[C@H](O)c1ccccc1` (as salt: hydrochloride) [compound 15, 1′-[(2R)-2-Hydroxy-2-phenylethyl]-8′-pyridin-4-yl-3′,4′-dihydrospiro-[cyclopentane-1,2′-pyrimido[1,2-a]pyrimidin]-6′(1′H)-one] returned a melting point of 221 to 222 °C.
